Legend:
[1] = system: LP-1 cells; experiment: Biological Assay C: antiproliferative activity on LP-1 cells (CellTiter-Glo); format: cell-based, human; conditions: 72 hr treatment, averaged values
Experimental: (§1) Determination of Antiproliferative Activity on LP-1, L-363 and JJN-3 Cells
(§2) All compounds tested were dissolved in DMSO and further dilutions were made in culture medium. Final DMSO concentration was 0.3% (v/v) in cell proliferation assays. Viability was assessed using CellTiter-Glo cell viability assay kit (Promega). The human LP-1, L-363 and JJN-3 cells (DSMZ) were cultured in RPMI 1640 medium supplemented with 2 mM L-glutamine, and 10% fetal calf serum (PAA). Cells were routinely kept as suspension cells at 37° C. in a humidified 5% CO2 atmosphere. Cells were passaged at a seeding density of 0.2×10^6/ml twice a week. Cells were seeded in black tissue culture treated 96-well plates (Perkin Elmer). Densities used for plating ranged from 2,000 to 6,000 cells per well in a total volume of 75 μl medium. After twenty four hours, drugs and/or solvents were added (25 μl) to a final volume of 100 μl. Following 72 hr of treatment plates were removed from the incubator and allowed to equilibrate to room temperature for approx 10 min. 100 μl CellTiter-Glo reagent was added to each well that was then covered (Perkin Elmer Topseal) and shaken on plate shaker for 10 min. Luminescence was measured on a HTS Topcount (Perkin Elmer). Within an experiment, the results for each treatment were the mean of 2 replicate wells. For initial screening purposes, compounds were tested using a 9 point dilution curve (serial 1:3 dilutions). For each experiment, controls (containing no drug) and a blank incubation (containing cells read at the time of compound addition) were run in parallel. The blank value was subtracted from all control and sample values. For each sample, the mean value for cell growth (in relative light units) was expressed as a percentage of the mean value for cell growth of the control.

[2] = system: L-363 cells; experiment: Biological Assay C: antiproliferative activity on L-363 cells (CellTiter-Glo); format: cell-based, human; conditions: 72 hr treatment, averaged values
Experimental: as §1, §2

[3] = system: P-IKKα levels in L363 cells; experiment: Biological Assay B: effect of compounds on P-IKKα levels in L363 cells; format: cell-based; conditions: Homo sapiens, L-363, averaged values, read-out: IKKα Cellular IC50
Experimental: Effect of Compounds on P-IKKα Levels in L363 Cells
All compounds tested were dissolved in DMSO and further dilutions were made in culture medium. Final DMSO concentration was 1% (v/v) in cell assays. The human L363 cells (ATCC) were cultured in RPMI 1640 medium supplemented with GlutaMax and 10% fetal calf serum (PAA). Cells were routinely maintained at densities of 0.2×10^6 cells per ml-1×10^6 cells per ml at 37° C. in a humidified 5% CO2 atmosphere. Cells were passaged twice a week splitting back to obtain the low density. Cells were seeded in 96 well plates (Nunc 167008) at 2×10^6 per ml media in a volume of 75 μl per well plus 25 μl 1 μg/ml recombinant human B-cell activating factor BAFF/B1YS/TNFSF13B. Seeded cells were incubated at 37° C. in a humidified 5% CO2 atmosphere for 24 hr. Drugs and/or solvents were added (20 μl) to a final volume of 120 μl. Following 2 hr treatment plates were removed from the incubator and cell lysis was achieved by the addition of 30 μl 5× lysis buffer followed by shaking on a plate shaker at 4° C. for 10 min. At the end of this incubation lysed cells were centrifuged at 800×g for 20 min at 4° C. and the lysate was assessed for P-IKKα levels by sandwich immuno-assay carried out in anti-rabbit antibody coated Mesoscale plates. Within an experiment, the results for each treatment were the mean of 2 replicate wells. For initial screening purposes, compounds were tested using an 8 point dilution curve (serial 1:3 dilutions). For each experiment, controls (containing MG132 and BAFF but no test drug) and a blank incubation (containing MG132 and BAFF and 10 μM ADS125117, a test concentration known to give full inhibition) were run in parallel. The blank incubation value was subtracted from all control and sample values. To determine the IC50 a sigmoidal curve was fitted to the plot of % inhibition of control P-IKKα levels versus Log10 compound concentration.

[4] = system: JJN-3 cells; experiment: Biological Assay C: antiproliferative activity on JJN-3 cells (CellTiter-Glo); format: cell-based, human; conditions: 72 hr treatment, averaged values
Experimental: as §1, §2

[5] = biological target: T1, Recombinant Human NF-kappaB-Inducing Kinase (NIK/MAP3K14) (Homo sapiens, UniProt Q99558); experiment: Biological Assay A2: inhibition of auto-phosphorylation of recombinant human NIK/MAP3K14 (AlphaScreen); format: biochemical; conditions: for IC50: auto-phosphorylation, averaged over all measurements on all batches, read-out: αscreen IC50; for inhibition at 10 µM: read-out: αscreen Max % Inhib @ 10 μM (Average)
T1 sequence (Q99558 whole entry): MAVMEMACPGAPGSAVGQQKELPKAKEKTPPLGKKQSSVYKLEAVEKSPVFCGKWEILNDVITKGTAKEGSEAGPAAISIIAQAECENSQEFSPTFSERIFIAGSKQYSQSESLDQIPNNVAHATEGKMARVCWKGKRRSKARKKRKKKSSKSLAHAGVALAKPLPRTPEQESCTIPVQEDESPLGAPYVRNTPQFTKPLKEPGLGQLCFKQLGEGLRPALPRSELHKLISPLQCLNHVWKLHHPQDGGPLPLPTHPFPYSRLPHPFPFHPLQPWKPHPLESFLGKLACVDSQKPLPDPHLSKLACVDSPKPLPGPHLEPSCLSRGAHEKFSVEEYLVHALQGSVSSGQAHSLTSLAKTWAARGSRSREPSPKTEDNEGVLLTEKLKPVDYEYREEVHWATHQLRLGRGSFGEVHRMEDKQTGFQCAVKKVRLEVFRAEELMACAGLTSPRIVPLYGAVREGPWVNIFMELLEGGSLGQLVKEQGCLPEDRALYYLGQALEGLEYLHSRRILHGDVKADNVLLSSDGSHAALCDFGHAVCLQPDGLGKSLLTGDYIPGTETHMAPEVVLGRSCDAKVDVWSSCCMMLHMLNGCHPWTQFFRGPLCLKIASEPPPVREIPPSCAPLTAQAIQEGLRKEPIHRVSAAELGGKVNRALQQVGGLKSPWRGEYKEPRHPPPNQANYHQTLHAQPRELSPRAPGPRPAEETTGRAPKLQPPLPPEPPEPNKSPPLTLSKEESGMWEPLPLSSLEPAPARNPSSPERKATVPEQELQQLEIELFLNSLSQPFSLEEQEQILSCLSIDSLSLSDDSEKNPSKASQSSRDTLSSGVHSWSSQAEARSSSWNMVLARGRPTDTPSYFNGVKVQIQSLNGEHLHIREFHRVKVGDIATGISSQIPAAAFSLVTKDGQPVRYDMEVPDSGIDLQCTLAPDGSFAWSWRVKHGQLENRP
Experimental: Inhibition of Auto-Phosphorylation of Recombinant Human NF-kappaB-Inducing Kinase (NIK/MAP3K14) Activity (AlphaScreen®)
NIK/MAP3K14 auto-phosphorylation activity was measured using the AlphaScreen® (αscreen) format (Perkin Elmer). All compounds tested were dissolved in dimethyl sulfoxide (DMSO) and further dilutions were made in assay buffer. Final DMSO concentration was 1% (v/v) in assays. Assay buffer was 50 mM Tris pH 7.5 containing 1 mM EGTA (ethylene glycol tetraacetic acid), 1 mM DTT (dithiothreitol), 0.1 mM Na3VO4, 5 mM MgCl2, 0.01% Tween 20. Assays were carried out in 384 well Alphaplates (Perkin Elmer). Incubations consisted of compound, 25 microM Adenosine-5′-triphosphate (ATP), and 0.2 nM NIK/MAP3K14. Incubations were initiated by addition of GST-tagged NIK/MAP3K14 enzyme, carried out for 1 h at 25° C. and terminated by addition of stop buffer containing anti-phospho-IKK Ser176/180 antibody. Protein A Acceptor and Glutathione-Donor beads were added before reading using an EnVision® Multilabel Plate Reader (Perkin Elmer). Signal obtained in the wells containing blank samples was subtracted from all other wells and IC50's were determined by fitting a sigmoidal curve to % inhibition of control versus Log10 compound concentration.

[6] = biological target: T1, Recombinant Human NF-kappaB-Inducing Kinase (NIK/MAP3K14); experiment: Biological Assay A: inhibition of recombinant human NIK/MAP3K14 activity (MBP phosphorylation, Mesoscale); format: biochemical; conditions: for IC50: averaged over all measurements on all batches, read-out: Biochemical (MSD MBP) IC50; for inhibition at 10 µM: read-out: Biochemical (MSD MBP) Max % Inhib @ 10 μM (Average)
Experimental: Inhibition of Recombinant Human NF-kappaB-Inducing Kinase (NIK/MAP3K14) Activity
Assay buffer was 50 mM Tris pH 7.5 containing 1 mM EGTA (ethylene glycol tetraacetic acid), 1 mM DTT (dithiothreitol), 0.1 mM Na3VO4, 5 mM MgCl2, 0.01% Tween 20. Assays were carried out in 384 well Mesoscale high binding plates which had been coated with myelin basic protein (MBP) and blocked with bovine serum albumin to prevent non-specific protein binding. All compounds tested were dissolved in dimethyl sulfoxide (DMSO) and further dilutions were made in assay buffer. Final DMSO concentration was 1% (v/v) in assays. Incubations consisted of compound (1% DMSO in control and blank wells), 25 μM Adenosine-5′-triphosphate (ATP), and 10 nM NIK/MAP3K14 substituting enzyme with buffer in the blank wells. Incubations were carried out for 1 h at 25° C. and were followed by washing and sequential incubation with rabbit anti-phospho-MBP and anti-rabbit Ig Sulfotag antibody before reading bound Sulfotag on a Mesoscale Discovery. Signal obtained in the wells containing blank samples was subtracted from all other wells and IC50's were determined by fitting a sigmoidal curve to % inhibition of control versus Log10 compound concentration.

Row | Structure (SMILES) | IC50 [3] | IC50 [5] | IC50 [6] | inhibition at 10 µM [6] | inhibition at 10 µM [5] | EC50 [1] | EC50 [2] | EC50 [4] | EC50 ([1]; Homo sapiens, LP-1, 72 h) | EC50 ([2]; Homo sapiens, L-363, 72 h) | EC50 ([4]; Homo sapiens, JJN-3, 72 h)
1 | COCCn1cc(-c2ccnc(N)n2)c2cc(C#CC3(O)CCN(C)CC3)ncc21 [Compound 123] |  |  |  | 23% | 27% |  |  |  |  |  | 
2 | COCCn1cc(-c2ccnc(N)n2)c2cc(C#CC(C)(O)C3CNC3)ncc21 (centres unmarked) [Compound 124] |  |  |  | 40% | 33% |  |  |  |  |  | 
3 | COCCn1cc(-c2ccnc(N)n2)c2cc(C#CC3(O)CNC3)ncc21 [Compound 125] |  |  |  | 18% | 24% |  |  |  |  |  | 
4 | CN1CC(n2cc(-c3nc(N)ncc3F)c3cc(C#CC(C)(O)C4CC4)nc(C4CC4)c32)C1 (centres unmarked) [Compound 102] | 32 nM | 900 nM |  |  |  |  |  |  | 65 nM | 21 nM | 35 nM
5 | CC(C)(O)Cn1cc(-c2ccnc(N)n2)c2cc(C#CCO)ncc21 [Compound 62] |  | 680 nM | 250 nM |  |  |  |  |  | 18000 nM | 880 nM | 970 nM
6 | CC(C)(O)Cn1cc(-c2ccnc(N)n2)c2cc(C#CC(C)(O)C3(C)COC3)ncc21 (centres unmarked) [Compound 47] |  | 9200 nM | 2900 nM |  |  |  |  |  | > 10000 nM | > 10000 nM | > 10000 nM
7 | COCCC(C)(O)C#Cc1cc2c(-c3ccnc(N)n3)cn(CC(C)(C)O)c2cn1 (centres unmarked) [Compound 39] |  | 1600 nM | 930 nM |  |  |  |  |  |  |  | 
8 | CN(C)C(=O)C(C)(O)C#Cc1cc2c(-c3ccnc(N)n3)cn(CC(C)(C)O)c2cn1 (centres unmarked) [Compound 63] |  | 780 nM | 600 nM |  |  |  |  |  |  |  | 

Now from value to molecule, other results behind:

Row | IC50 [3] | IC50 [5] | IC50 [6] | inhibition at 10 µM [6] | inhibition at 10 µM [5] | Structure (SMILES) | EC50 [1] | EC50 [2] | EC50 [4] | EC50 ([1]; Homo sapiens, LP-1, 72 h) | EC50 ([2]; Homo sapiens, L-363, 72 h) | EC50 ([4]; Homo sapiens, JJN-3, 72 h)
9 | 36 nM | 26 nM |  |  |  | CC(O)(C#Cc1cc2c(-c3nc(N)ncc3F)cn(C3COC3)c2cn1)C1CC1 (single isomer, unassigned) [Compound 122] | 310 nM | 69 nM | 100 nM |  |  | 
10 | 110 nM | 220 nM |  |  |  | CC(O)(C#Cc1cc2c(-c3nc(N)ncc3F)cn(C3COC3)c2c(C2CC2)n1)C1CC1 (centres unmarked) [Compound 98] |  |  |  | 210 nM | 42 nM | 78 nM
11 |  | 43 nM | 17 nM |  |  | CC(C)(O)C#Cc1cc2c(-c3nc(N)ncc3F)cn(C3COC3)c2cn1 [Compound 74] |  |  |  | 1100 nM | 45 nM | 76 nM
12 | 20 nM | 17 nM |  |  |  | COCCCn1cc(-c2nc(N)ncc2F)c2cc(C#CC(C)(O)C3CC3)ncc21 (single isomer, unassigned) [Compound 120] | 200 nM | 74 nM | 95 nM |  |  | 
13 |  | 61 nM | 26 nM |  |  | CC(C)(O)C#Cc1cc2c(-c3nc(N)ncc3C(F)(F)F)cn(CC3CCOCC3)c2cn1 [Compound 71] |  |  |  | 2600 nM | 520 nM | 550 nM
14 | 70 nM | 21 nM |  |  |  | CC(O)(C#Cc1cc2c(-c3nc(N)ncc3F)cn(C3COC3)c2cn1)C1CC1 (centres unmarked) [Compound 97] |  |  |  | 1200 nM | 100 nM | 170 nM
15 |  | 38 nM | 6.3 nM |  |  | CC(C)(O)C#Cc1cc2c(-c3nc(N)ncc3C(F)(F)F)cn(CC(C)(C)O)c2cn1 [Compound 72] |  |  |  | 7200 nM | 190 nM | 320 nM
16 | 49 nM | 13 nM |  |  |  | CN(C)C(=O)n1cc(-c2nc(N)ncc2F)c2cc(C#CC(C)(O)C3CC3)ncc21 (centres unmarked) [Compound 103] |  |  |  | 680 nM | 48 nM | 91 nM
17 | 12 nM | 16 nM |  |  |  | COCCCn1cc(-c2nc(N)ncc2F)c2cc(C#CC(C)(C)O)ncc21 [Compound 76] |  |  |  | 300 nM | 110 nM | 140 nM
18 |  | 150 nM | 30 nM |  |  | CC(C)n1cc(-c2ccnc(N)n2)c2cc(C#CCO)ncc21 [Compound 13] |  |  |  | 710 nM | 36 nM | 150 nM
19 |  | 71 nM | 56 nM |  |  | CC(C)(O)C#Cc1cc2c(-c3nc(N)ncc3F)cn(CC3CCOCC3)c2cn1 [Compound 73] |  |  |  | 1600 nM | 140 nM | 190 nM
